Data on four compounds can be found in paper PMC9578392, “Safety, Tolerability, and Pharmacokinetics of the Novel Antiviral Agent Ensitrelvir Fumaric Acid, a SARS-CoV-2 3CL Protease Inhibitor, in Healthy Adults” (Antimicrobial Agents and Chemotherapy, 2022).

The subject of one data set is CYP3A. Put plainly: Drug-drug interaction with midazolam (cohort G).
The subject of a further data set is Omicron. Set-up: method as in PMID 35081300. The conditions noted are these: cited from earlier work.
The conditions of data set [1]: in vivo; cited from earlier work.
[2] abbreviates: midazolam 2 mg, ensitrelvir 750/250 mg.

Molecules are shown by their SMILES.

Usually half-life stands for the time needed for the level to fall by half in the phase considered. A low value points to fast loss. By AUC(0-inf) is commonly meant the area under the concentration-time curve extrapolated to infinity. Usually AUC(0-t) stands for the area under the concentration-time curve up to a stated or last time point. High values mean more exposure, low ones less exposure. One may read the Cmax as the peak of the concentration-time curve. One may read the MRT as a mean duration of stay, worked out from the concentration-time curve. With `Cc1ncc2n1-c1ccc(Cl)cc1C(c1ccccc1F)=NC2` [Midazolam, midazolam], in the data set with CYP3A (ensitrelvir 750/250 mg, day 6), the “increase of AUC0-last of midazolam coadministered with ensitrelvir vs midazolam alone” value worked out at 7.23 fold and the “increase of Cmax of midazolam coadministered with ensitrelvir vs midazolam alone” value is 2.78 fold. In addition, in the data set on CYP3A (human, in vivo), the half-life was 9.13 h. Besides, in the data set on CYP3A (human, in vivo, 2 mg), the AUC(0-inf) turned out to be 35.7 ng·h/mL, the AUC(0-t) is 34.7 ng·h/mL, the highest level (Cmax) was 16.2 ng/mL and the MRT was 4.11 h. Further, in the data set with CYP3A (human, in vivo, 2 mg), the half-life is 4.36 h and the k el was 4.42e-05 s⁻¹. Further, in the data set with CYP3A (setting [2]), the “AUC0-inf, GLS mean (90% CI) ratio (midazolam with ensitrelvir/midazolam alone)” value is 8.8002 (6.7061/11.5484); the “AUC0-last, GLS mean (90% CI) ratio (midazolam with ensitrelvir/midazolam alone)” value is 7.2293 (5.5817/9.3632); the “Cmax, GLS mean (90% CI) ratio (midazolam with ensitrelvir/midazolam alone)” value is listed as 2.7763 (2.3341/3.3022); the “MRT, GLS mean (90% CI) ratio (midazolam with ensitrelvir/midazolam alone)” value is given as 2.8734 (2.5380/3.2530). Moreover, the “t1/2,z, GLS mean (90% CI) ratio (midazolam with ensitrelvir/midazolam alone)” value in the data set on CYP3A (setting [2]) is 2.0954 (1.9490/2.2529).

As to `CC(C)C(=O)OC[C@H]1O[C@@H](n2ccc(NO)nc2=O)[C@H](O)[C@@H]1O` [molnupiravir], the “efficacy against Omicron” value with Omicron was “efficacious”.

On to `CC(C)(C)[C@H](NC(=O)C(F)(F)F)C(=O)N1C[C@H]2[C@@H]([C@H]1C(=O)N[C@H](C#N)C[C@@H]1CCNC1=O)C2(C)C` [nirmatrelvir], for which, in data set [1], the elimination in humans entry is “rapid”.

`CCC(CC)COC(=O)[C@H](C)N[P@](=O)(OC[C@H]1O[C@@](C#N)(c2ccc3c(N)ncnn23)[C@H](O)[C@@H]1O)Oc1ccccc1` [remdesivir]: the “efficacy against Omicron” value with Omicron was “efficacious”.
